Converted amounts (≈) assume the structure as drawn.
Key:
[1] = tested on: Gram-negative bacteria; assay: Sensitization to novobiocin, ester and amide side chain compounds (Table 14); assay type: cell-based; settings: strain not given
Description: (§1) Aliquots of 1 mL of the suspension were added to test tubes containing 1 mL TSB and incrementally varied concentrations of cholic acid derivatives and/or erythromycin or novobiocin. In the sensitization experiments, erythromycin or novobiocin were added 15 minutes later than the cholic acid derivatives. The samples were subjected to stationary incubation at 37° C. for 24 hours. Sample turbidity was determined by measuring absorption at 760 nm (HP 8453 UV-Visible Chemstation, Hewlett Packard). Additionally, an alliquot from each of the samples showing no measurable turbidity was subcultured on TSA plates (alliquots were diluted to provide fewer than 300 CFU). Colonies that grew on the subculture after overnight incubation were counted and the number of CFU/mL in the samples were calculated. The calculated values were compared to the number of CFU/mL in the original inoculum.
(§2) Ability to permeabilize outer membrane: Compounds 11, 106, and 108-114 (FIG. 1) were tested for antibiotic activity. They were also tested for the ability to permeabilize the outer membrane of Gram-negative bacteria, causing sensitization to hydrophobic antibiotics that cannot cross the outer membrane. The permeabilization of the outer membrane was measured using erythromycin and novobiocin.
(§3) Ester and amide side chains: Additional compounds, for example, compounds with amide and ester side chains, were tested.

[2] = tested on: Gram-negative bacteria; assay: MIC of ester and amide side chain compounds (Table 14); assay type: cell-based; settings: strain not given
Description: as §1, §3

[3] = tested on: Gram-negative bacteria; assay: Sensitization to erythromycin, ester and amide side chain compounds (Table 14); assay type: cell-based; settings: Table 14; strain not given
Description: as §1, §2, §3

[4] = tested on: E. coli (ATCC 10798); assay: MIC and MBC measurement with E. coli (ATCC 10798); assay type: cell-based, Escherichia coli; settings: Table 1, E. coli (ATCC 10798)
Outline: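 Cholic acid derivatives, dissolved as HCl salts in sterile water, were tested in TSB tubes over a concentration series and incubated without agitation for 24 hours at 37° C. Absorption at 760 nm marked growth, while surviving CFU in turbidity-free tubes, plated on TSA overnight, were compared with inoculum counts.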

[5] = tested on: E. coli (ATCC 10798); assay: Sensitization to erythromycin (concentration lowering the MIC of erythromycin), E. coli (ATCC 10798); assay type: cell-based, Escherichia coli; settings: Table 2, E. coli (ATCC 10798)
[6] = tested on: Escherichia coli ATCC 25922; assay: Growth inhibition and FIC with rifampicin, Escherichia coli ATCC 25922; assay type: cell-based; settings: Table 13, rifampicin (by order) at 0.5, 1.0 or 3.0 μg/mL
Description: (§4) Alternatively, “fractional inhibitory concentration (FIC)” is also useful for determination of synergy between the compounds of the invention, or the compounds in combination with known antibiotics. FICs can be performed by checkerboard titrations of compounds in one dimension of a microtiter plate, and of antibiotics in the other dimension, for example. The FIC is calculated by looking at the impact of one antibiotic on the MIC of the other and vice versa. […] Preferably, an FIC of less than 0.5 is obtained for synergism. As used herein, FIC can be determined as follows:
as §1
(§5) To measure permeabilization, the FIC values for compounds 1, 2, 5, 106, 10, 112, 133, and 134 with erythromycin, novobiocin, and rifampicin were determined. Concentrations of 0.5, 1.0 or 3.0 μg/mL of these antibiotics were used, and the concentrations of the cholic acid derivatives required to inhibit bacterial growth of Gram-negative strains were determined.

[7] = remark: listed apart in the source
Description: (§6) Minimum inhibition concentrations (MIC) and minimum hemolytic concentrations (MHC) were measured as described in Li et al., Antimicrob. Agents. Chemother., 1999, 43, 1347.

[8] = tested on: E. coli (ATCC 25922); assay: Sensitization to erythromycin, E. coli (ATCC 25922); assay type: cell-based, Escherichia coli; settings: Table 11; Escherichia coli ATCC 25922; erythromycin (by order) at 0.5, 1.0 or 3.0 μg/mL
Description: FICs can be performed by checkerboard titrations of compounds in one dimension of a microtiter plate, and of antibiotics in the other dimension, for example. The FIC is calculated by looking at the impact of one antibiotic on the MIC of the other and vice versa. […] Preferably, an FIC of less than 0.5 is obtained for synergism. As used herein, FIC can be determined as follows:
as §1
Concentrations of 0.5, 1.0 or 3.0 μg/mL of these antibiotics were used, and the concentrations of the cholic acid derivatives required to inhibit bacterial growth of Gram-negative strains were determined.
as §6

[9] = tested on: Salmonella typhimurium ATCC 14028; assay: Growth inhibition and FIC with rifampicin, Salmonella typhimurium ATCC 14028; assay type: cell-based; settings: Table 13; Salmonella typhimurium ATCC 14028^b; rifampicin (by order) at 0.5, 1.0 or 3.0 μg/mL
Description: as §4, §1, §5

[10] = tested on: Salmonella typhimurium ATCC 14028; assay: MIC and MBC measurement with Salmonella typhimurium ATCC 14028; assay type: cell-based; settings: Salmonella enterica, Table 10, read-out: MBC
Description: (§7) General: Microorganisms. Reference strains were purchased from the American Type Culture Collection (Rockville, Md.) or Bactrol disks from Difeo Laboratories (Detroit, Mich.). The following specific ATCC strains were used: 10798 Escherichia coli, 25922 Escherichia coli, 13883 Klebsiella pneumoniae, 27853 Pseudomonas aeruginosa, 14028 Salmonella typhimurium, 29212 Enterococcus faecalis, 25923 Staphylococcus aureus, 19615 Streptococcus pyogenes, and 90028 Candida albicans. Bacterial strains were maintained on Mueller-Hinton agar plates, and Candida albicans was maintained on Sabouraud Dextrose agar plates.
(§8) Tryptic soy broth (TSB) was made by dissolving 27.5 grams of tryptic soy broth without dextrose (DIFCO Laboratories) in 1 liter of deionized water and sterilizing at 121° C. for 15 minutes. Solid agar (TSA) plates were made by dissolving 6.4 grams of tryptic soy broth and 12 grams of agar (purified grade, Fischer Scientific) in 800 mL of deionized water and sterilizing at 121° C. for 20 minutes. Aliquots (20 mL) of the homogeneous solution were then poured in sterile plastic petri dishes (100×15 mm, Fisher Scientific). Solutions of compounds were made by dissolving the HCl salt of the respective compound into an appropriate amount of deionized and sterilized water followed by microfiltration.
as §1

[11] = tested on: Klebsiella pneumonia ATCC 13883; assay: MIC and MBC measurement with Klebsiella pneumoniae ATCC 13883; assay type: cell-based; settings: Klebsiella pneumoniae, ATCC13883, Table 10, read-out: MBC
Description: as §7, §8, §1

[12] = tested on: Pseudomonas aeruginosa (ATCC 27853); assay: Sensitization to novobiocin, Pseudomonas aeruginosa (ATCC 27853); assay type: cell-based; settings: Table 12; Pseudomonas aeruginosa ATCC 27853; novobiocin (by order) at 0.5, 1.0 or 3.0 μg/mL
Description: as §4
as §1, with “inoculum. […]” for “inoculum.”
as §5

[13] = tested on: E. coli (ATCC 25922); assay: MIC and MBC measurement with E. coli (ATCC 25922); assay type: cell-based, Escherichia coli; settings: ATCC25922; Table 10; Escherichia coli ATCC 25922; read-out: MBC
Outline: (§9)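 Growth inhibition read as absorbance at 760 nm after 24 h stationary culture at 37 °C in tryptic soy broth containing varied compound levels. Turbidity-free samples were plated on TSA overnight and CFU/mL compared with the starting inoculum for bactericidal endpoint; antibiotic co-additions followed compound by 15 min.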

[14] = tested on: Klebsiella pneumonia ATCC 13883; assay: Growth inhibition and FIC with novobiocin, Klebsiella pneumoniae ATCC 13883; assay type: cell-based; settings: Table 12, novobiocin (by order) at 0.5, 1.0 or 3.0 μg/mL
Description: as §4, §1, §5

[15] = tested on: Salmonella typhimurium ATCC 14028; assay: Growth inhibition and FIC with novobiocin, Salmonella typhimurium ATCC 14028; assay type: cell-based; settings: Table 12, novobiocin (by order) at 0.5, 1.0 or 3.0 μg/mL
Description: as §4, §1, §5

[16] = tested on: Pseudomonas aeruginosa (ATCC 27853); assay: Sensitization to erythromycin, Pseudomonas aeruginosa (ATCC 27853); assay type: cell-based
Outline: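 Sensitization measured by the cholic acid derivative concentration inhibiting growth when combined with 0.5, 1.0 or 3.0 μg/mL erythromycin or novobiocin, antibiotic added 15 min after derivative. Incubation 24 h at 37 °C without shaking in TSB; growth by absorbance at 760 nm with CFU plating of non-turbid tubes; synergy expressed as FIC.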

[17] = tested on: Staphylococcus aureus ATCC 25923; assay: MIC and MBC measurement with Staphylococcus aureus ATCC 25923; assay type: cell-based; settings: ATCC25923; Table 10; Staphylococcus aureus ATCC 25923; read-out: MIC
Outline: as §9

[18] = tested on: Pseudomonas aeruginosa ATCC 27853; assay: Growth inhibition and FIC with rifampicin, Pseudomonas aeruginosa ATCC 27853; assay type: cell-based; settings: Table 13; Pseudomonas aeruginosa ATCC 27853^b; rifampicin (by order) at 0.5, 1.0 or 3.0 μg/mL
Description: as §4, §1, §5

[19] = tested on: Klebsiella pneumonia ATCC 13883; assay: Growth inhibition and FIC with rifampicin, Klebsiella pneumoniae ATCC 13883; assay type: cell-based
Description: as §4, §1, §5

## C[C@H](CCCO)C1CC[C@H]2[C@@H]3[C@H](N)C[C@@H]4C[C@H](N)CC[C@]4(C)[C@H]3C[C@H](N)[C@]12C (stereo partly shown)
other
  melting point: 200 to 202 °C

## C[C@H](CCCN(C)Cc1ccccc1)[C@H]1CC[C@H]2[C@@H]3[C@H](OC(=O)CCN)C[C@@H]4C[C@H](OC(=O)CCN)CC[C@]4(C)[C@H]3C[C@H](OC(=O)CCN)[C@]12C.Cl.Cl.Cl.Cl [Compound 7]
[1]
  b: concentration of cholic acid derivatives required to lower MIC of novobiocin to 1 μg/ML: 13 µg/mL
[2]
  MIC: 70 µg/mL
[3]
  a: concentration of cholic acid derivatives required to lower MIC of erythromycin to 1 μg/ML: 3 µg/mL
[4]
  MIC: 28 µg/mL
[5]
  MIC: concentration required to lower the MIC of erythromycin from 70 μg/mL to 1 μg/mL: 2.5 µg/mL

## C[C@H](CCCO)[C@H]1CC[C@H]2[C@@H]3[C@H](OCCCN)C[C@@H]4C[C@H](OCCCN)CC[C@]4(C)[C@H]3C[C@H](OCCCN)[C@]12C [Compound 10]
[6]
  concentration required to inhibit bacterial growth with antibiotic: 0.70 µg/mL
[7]
  MHC: 100 µg/mL
[8]
  concentration required to inhibit bacterial growth with antibiotic: 1.5 µg/mL
[9]
  concentration required to inhibit bacterial growth with antibiotic: 0.55 µg/mL
[10]
  MBC: > 17 µg/mL
[11]
  MBC: 50 µg/mL (≈ 88.4 µM)
[4]; Escherichia coli, ATCC10798, read-out: MBC
  MBC: 60 µg/mL (≈ 106 µM)
[12]
  concentration required to inhibit bacterial growth with antibiotic: 5.3 µg/mL
[5]
  MIC: concentration required to lower the MIC of erythromycin from 70 μg/mL to 1 μg/mL: 2 µg/mL
[5]; erythromycin sensitization
  MBC (with erythromycin): 50 µg/mL
[13]
  MBC: 40 µg/mL (≈ 70.7 µM)
[14]
  concentration required to inhibit bacterial growth with antibiotic: 0.73 µg/mL
[15]
  concentration required to inhibit bacterial growth with antibiotic: 1.8 µg/mL
[16]; Table 7, P. aureginosa (ATCC 27853)
  MIC: concentration required to lower the MIC of erythromycin from 240 μg/mL to 5 μg/mL: 7 µg/mL
[16]; Table 11, Pseudomonas aeruginosa ATCC 27853, erythromycin (by order) at 0.5, 1.0 or 3.0 μg/mL
  concentration required to inhibit bacterial growth with antibiotic: 2.1 µg/mL
[17]
  MIC: 2 µg/mL (≈ 3.53 µM)
[18]
  concentration required to inhibit bacterial growth with antibiotic: 0.84 µg/mL
[19]; Table 13, rifampicin (by order)
  FIC: 0.030
[19]; Table 13, rifampicin (by order) at 0.5, 1.0 or 3.0 μg/mL
  concentration required to inhibit bacterial growth with antibiotic: 0.16 µg/mL

Source: patent US7598234B2, “Steroid derived antibiotics” (Brigham Young University, priority 1998, dated 2009)
